Bridge positions count the residues as written; N and C are the ends. Square brackets hold non-standard residues; d marks the D form. Peptide text beside a SMILES is read from it. R8 = C=CCCCCCC[C@@](C)(N)C(=O)O; hLeu = CC(C)CC[C@H](N)C(=O)O; S5 = C=CCCC[C@](C)(N)C(=O)O
How the values were obtained:
[1] = tested on: SJSA-1 cells; assay: Cell lysis by peptidomimetic macrocycles (LDH release); assay type: cell-based; settings: SJSA-1, 1 h
Method in brief: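 SJSA-1 cells plated the day before, switched to RPMI with 1% FBS, then exposed 1 h at 37 °C to macrocycle at final 50 μM to 6.25 μM in 0.5% DMSO. LDH released into the supernatant was measured by kit. Controls: 0.5% DMSO (non-lytic), 10 μM melittin and 1% Triton X-100 (lytic).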

[2] = tested on: Caspase 3; assay: Caspase 3 detection assay in SJSA1 cells; assay type: cell-based; settings: SJSA1, 48 h, Caspase 3 activation over DMSO-treated cells
[3] = tested on: RKO; assay: Cell viability assay (MTT), RKO; settings: read-out: RKO EC50 (72 h)

Row | SMILES | 6.25 μM % Lysed cells (1 h LDH) [1] | 25 μM % Lysed cells (1 h LDH) [1] | 50 μM % Lysed cells (1 h LDH) [1] | caspase 0.3 μM [2] | caspase 3 μM [2] | caspase 10 μM [2] | caspase 30 μM [2] | EC50 [3] | caspase 1 μM [2]
1 | CC[C@H](C)[C@H](NC(=O)[C@H](C)NC(=O)[C@H](C)NC(=O)[C@]1(C)CCCC=CCCCCCC[C@@](C)(NC(=O)[C@H](Cc2ccccc2)NC(=O)[C@@H](NC(=O)[C@H](CC(C)C)NC(C)=O)[C@@H](C)O)C(=O)N[C@@H](C)C(=O)N[C@@H](Cc2ccc(O)cc2)C(=O)N[C@@H](Cc2c[nH]c3ccccc23)C(=O)N[C@@H](C)C(=O)N[C@@H](CCC(N)=O)C(=O)N[C@@H](CC(C)C)C(=O)N1)C(=O)N[C@H](CC(C)C)C(N)=O (single isomer, unassigned) [compound 81] | 1% | 0% | 0% | 1 | 1 | 6 | 21 | 5 to 15 µM | 
2 | CC(=O)N[C@@H](CC(C)C)C(=O)N[C@H](C(=O)N[C@@H](Cc1ccccc1)C(=O)N[C@]1(C)CCCCCCC=CCCC[C@@](C)(C(=O)N[C@@H](CO)C(=O)N[C@@H](C)C(=O)N[C@@H](C)C(=O)N[C@H](C)C(N)=O)NC(=O)[C@H](CC2CCC2)NC(=O)[C@H](CCC(N)=O)NC(=O)[C@H](C)NC(=O)[C@H](Cc2c[nH]c3ccccc23)NC(=O)[C@H](Cc2ccc(O)cc2)NC(=O)[C@H](CCC(=O)O)NC1=O)[C@@H](C)O (single isomer, unassigned) [compound 353] | 0% | 0% | 0% | 1 | 5 | 7 | 30 | 15 to 30 µM | 2
3 | CC(=O)N[C@@H](CC(C)C)C(=O)N[C@H](C(=O)N[C@@H](Cc1ccccc1)C(=O)N[C@]1(C)CCCCCC/C=C\CCC[C@@](C)(C(=O)N[C@@H](CO)C(=O)N[C@@H](C)C(=O)N[C@@H](C)C(N)=O)NC(=O)[C@H](CCC(C)C)NC(=O)[C@H](CCC(N)=O)NC(=O)[C@H](C)NC(=O)[C@H](Cc2c[nH]c3ccccc23)NC(=O)[C@H](Cc2ccc(O)cc2)NC(=O)[C@H](C)NC1=O)[C@@H](C)O [compound 114] (Ac-LTF[R8]AYWAQ[hLeu][S5]SAA-NH2; staple (Z) 4-11) | 3% | 4% | 9% | 1 | 6 | 28 | 34 | 5 to 15 µM | 
4 | CC(=O)N[C@@H](CC(C)C)C(=O)N[C@H](C(=O)N[C@@H](Cc1ccccc1)C(=O)N[C@]1(C)CCCCCCC=CCCC[C@@](C)(C(=O)N[C@@H](C)C(=O)N[C@@H](C)C(=O)N[C@@H](C)C(=O)N[C@@H](C)C(=O)N[C@@H](C)C(=O)N[C@H](C)C(N)=O)NC(=O)[C@H](CC(C)C)NC(=O)[C@H](CCC(N)=O)NC(=O)[C@H](C)NC(=O)[C@H](Cc2c[nH]c3cc(Cl)ccc23)NC(=O)[C@H](Cc2ccc(O)cc2)NC(=O)[C@H](C)NC1=O)[C@@H](C)O (single isomer, unassigned) [compound 338] | 0% | 0% | 1% | 1 | 23 | 20 | 29 | < 5 µM | 5
5 | CC(=O)N[C@@H](C)C(=O)N[C@@H](CC(C)C)C(=O)N[C@H](C(=O)N[C@@H](Cc1ccccc1)C(=O)N[C@]1(C)CCCCCCC=CCCC[C@@](C)(C(=O)N[C@@H](CO)C(=O)N[C@@H](C)C(=O)N[C@@H](C)C(=O)N[C@H](C)C(N)=O)NC(=O)[C@H](CC2CCC2)NC(=O)[C@H](CCC(N)=O)NC(=O)[C@H](C)NC(=O)[C@H](Cc2c[nH]c3ccccc23)NC(=O)[C@H](Cc2ccc(O)cc2)NC(=O)[C@H](CCC(=O)O)NC1=O)[C@@H](C)O (single isomer, unassigned) [compound 355] | 0% | 0% | 0% | 1 | 11 | 13 | 30 | 15 to 30 µM | 4
6 | CC(=O)N[C@@H](C)C(=O)N[C@@H](CC(C)C)C(=O)N[C@H](C(=O)N[C@@H](Cc1ccccc1)C(=O)N[C@]1(C)CCCCCCC=CCCC[C@@](C)(C(=O)N[C@@H](CO)C(=O)N[C@@H](C)C(=O)N[C@@H](C)C(=O)N[C@@H](C)C(=O)N[C@H](C)C(N)=O)NC(=O)[C@H](CC2CCC2)NC(=O)[C@H](CCC(N)=O)NC(=O)[C@H](C)NC(=O)[C@H](Cc2c[nH]c3ccccc23)NC(=O)[C@H](Cc2ccc(O)cc2)NC(=O)[C@H](CCC(=O)O)NC1=O)[C@@H](C)O (single isomer, unassigned) [compound 357] | 0% | 0% | 0% | 2 | 11 | 15 | 23 | < 5 µM | 7
7 | CC(=O)N[C@@H](CC(C)C)C(=O)N[C@H](C(=O)N[C@@H](Cc1ccccc1)C(=O)N[C@]1(C)CCCCCCC=CCCC[C@@](C)(C(=O)N[C@@H](CO)C(=O)N[C@@H](C)C(=O)N[C@@H](CC(C)C)C(N)=O)NC(=O)[C@H](CC(C)C)NC(=O)[C@H](CCC(N)=O)NC(=O)[C@H](C)NC(=O)[C@H](Cc2c[nH]c3ccccc23)NC(=O)[C@H](Cc2ccc(O)cc2)NC(=O)[C@H](C)NC1=O)[C@@H](C)O [compound 4] (Ac-LTF[R8]AYWAQL[S5]SAL-NH2; staple 4-11) | −2% | 1% | 2% |  | 9 | 37 | 35 | < 5 µM | 
8 | CC(=O)N[C@@H](CC(C)C)C(=O)N[C@H](C(=O)N[C@@H](Cc1ccccc1)C(=O)N[C@]1(C)CCCCCC/C=C/CCC[C@@](C)(C(=O)N[C@@H](C)C(=O)N[C@@H](C)C(=O)N[C@@H](C)C(=O)N[C@@H](C)C(=O)N[C@@H](C)C(=O)N[C@H](C)C(N)=O)NC(=O)[C@H](CC2CCC2)NC(=O)[C@H](CCC(N)=O)NC(=O)[C@H](CO)NC(=O)[C@H](Cc2c[nH]c3ccccc23)NC(=O)[C@H](Cc2ccc(O)cc2)NC(=O)[C@H](CCC(=O)O)NC1=O)[C@@H](C)O [compound 351] | 0% | 0% | 0% | 3 | 13 | 15 | 24 | 5 to 15 µM | 9
9 | CC(=O)N[C@@H](CC(C)C)C(=O)N[C@H](C(=O)N[C@@H](Cc1ccccc1)C(=O)N[C@]1(C)CCCCCCC=CCCC[C@@](C)(C(=O)N[C@@H](C)C(=O)N[C@@H](C)C(=O)N[C@@H](Cc2ccccc2)C(=O)N[C@H](C)C(N)=O)NC(=O)[C@H](CC(C)C)NC(=O)[C@H](CCC(N)=O)NC(=O)[C@H](C)NC(=O)[C@H](Cc2c[nH]c3ccccc23)NC(=O)[C@H](Cc2ccc(O)cc2)NC(=O)[C@H](CCC(=O)O)NC1=O)[C@@H](C)O (single isomer, unassigned) [compound 219] | 0% | −1% | 2% | 1 | 5 | 17 | 34 | 5 to 15 µM | 
10 | CC(=O)N[C@@H](CCC(=O)O)C(=O)N[C@H](C(=O)N[C@@H](Cc1ccccc1)C(=O)N[C@]1(C)CCCCCCC=CCCC[C@@](C)(C(=O)N[C@@H](CO)C(=O)N[C@@H](C)C(=O)N[C@@H](C)C(N)=O)NC(=O)[C@H](CC(C)C)NC(=O)[C@H](CCC(N)=O)NC(=O)[C@H](C)NC(=O)[C@H](Cc2c[nH]c3ccccc23)NC(=O)[C@H](Cc2ccc(O)cc2)NC(=O)[C@H](CCC(=O)O)NC1=O)[C@@H](C)O [compound 161] (Ac-ETF[R8]EYWAQL[S5]SAA-NH2; staple 4-11) | 1% | −1% | 0% | 2 | 8 | 14 | 22 | > 30 µM | 
11 | CC(=O)N[C@@H](CC(C)C)C(=O)N[C@H](C(=O)N[C@@H](Cc1ccccc1)C(=O)N[C@]1(C)CCCCCCC=CCCC[C@@](C)(C(=O)N[C@@H](CO)C(=O)N[C@@H](Cc2c[nH]c3ccccc23)C(=O)N[C@@H](C)C(N)=O)NC(=O)[C@H](CC(C)C)NC(=O)[C@H](CCC(N)=O)NC(=O)[C@H](C)NC(=O)[C@H](Cc2c[nH]c3ccccc23)NC(=O)[C@H](Cc2ccc(O)cc2)NC(=O)[C@H](C)NC1=O)[C@@H](C)O (single isomer, unassigned) [compound 120] | 0% | 0% | 6% | 2 | 11 | 20 | 30 | < 5 µM | 

— US20200369728A1, “PEPTIDOMIMETIC MACROCYCLES AND USES THEREOF” (Aileron Therapeutics, Inc., priority 2015, published 2020)
